{"source": "paper PMC4946998", "about": "(Journal of cellular physiology, 2016)", "key": {"corneal opacity [1]": {"system": "corneal opacity", "conditions": "CM"}, "[2]": {"system": "corneal epithelial defect", "conditions": "CM; for wound healing: day 5"}, "corneal opacity [3]": {"system": "corneal opacity", "conditions": "WT, CM, 2D post injury; ref Bian et al., 2016; cited from earlier work"}, "[4]": {"system": "IL-1β, IL-6, CXCL1, MMPs -1,-3,-9,-13 mRNA transcripts"}, "[5]": {"system": "MMP-1 immunoreactivity; Gr-1+ cells", "conditions": "WT mice, CM, topical Dex; not in MMP-8KO mice"}, "MMP-8": {"molecular_target": "MMP-8 (Homo sapiens, UniProt P22894)", "sequence (P22894 101-467, species assumed)": "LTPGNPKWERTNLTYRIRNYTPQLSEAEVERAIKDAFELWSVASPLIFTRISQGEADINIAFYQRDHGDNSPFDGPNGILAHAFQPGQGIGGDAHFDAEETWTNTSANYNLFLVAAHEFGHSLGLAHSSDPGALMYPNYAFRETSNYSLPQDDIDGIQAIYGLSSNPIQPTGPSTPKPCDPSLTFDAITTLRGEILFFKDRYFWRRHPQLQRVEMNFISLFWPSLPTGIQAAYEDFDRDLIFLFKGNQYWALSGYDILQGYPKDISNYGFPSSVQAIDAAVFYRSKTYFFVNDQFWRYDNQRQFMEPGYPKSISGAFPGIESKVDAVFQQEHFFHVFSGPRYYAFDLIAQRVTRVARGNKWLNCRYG", "conditions": "read-out: IC50 MMP-8; average of three determinations, SD <10%"}, "[6]": {"system": "inflammatory cytokines and MMPs in the cornea", "conditions": "naïve WT mice, CAM12 IP QD for 5 days versus PBS; data not shown"}, "MMP-3": {"molecular_target": "MMP-3 (Homo sapiens, UniProt P08254)", "sequence (P08254 100-477)": "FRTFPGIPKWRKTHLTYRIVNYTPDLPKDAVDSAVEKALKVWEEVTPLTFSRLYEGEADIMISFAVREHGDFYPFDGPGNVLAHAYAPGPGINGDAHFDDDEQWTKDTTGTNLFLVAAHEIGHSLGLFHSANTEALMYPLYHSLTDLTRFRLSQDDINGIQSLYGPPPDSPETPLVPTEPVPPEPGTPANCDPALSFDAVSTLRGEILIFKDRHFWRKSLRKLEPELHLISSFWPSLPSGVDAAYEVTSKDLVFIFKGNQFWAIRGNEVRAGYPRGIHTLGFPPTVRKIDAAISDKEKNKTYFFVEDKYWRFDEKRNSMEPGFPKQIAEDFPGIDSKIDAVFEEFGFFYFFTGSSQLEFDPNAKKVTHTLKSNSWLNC", "conditions": "read-out: IC50 MMP-3; average of three determinations, SD <10%"}, "MMP-1": {"molecular_target": "MMP-1 (Homo sapiens, UniProt P03956)", "sequence (P03956 100-469)": "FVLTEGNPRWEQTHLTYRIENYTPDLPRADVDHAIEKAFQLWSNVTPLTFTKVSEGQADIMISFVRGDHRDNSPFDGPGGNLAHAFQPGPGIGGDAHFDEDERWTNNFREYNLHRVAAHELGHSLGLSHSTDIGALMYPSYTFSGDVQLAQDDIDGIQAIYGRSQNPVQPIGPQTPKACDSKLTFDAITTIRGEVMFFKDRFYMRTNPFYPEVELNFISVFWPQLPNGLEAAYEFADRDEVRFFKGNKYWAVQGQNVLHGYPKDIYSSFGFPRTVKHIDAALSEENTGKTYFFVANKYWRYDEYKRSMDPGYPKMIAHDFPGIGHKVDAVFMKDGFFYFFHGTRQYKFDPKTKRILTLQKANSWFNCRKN", "conditions": "read-out: IC50 MMP-1; average of three determinations, SD <10%"}, "MMP-2": {"molecular_target": "MMP-2 (Homo sapiens, UniProt P08253)", "sequence (P08253 110-660)": "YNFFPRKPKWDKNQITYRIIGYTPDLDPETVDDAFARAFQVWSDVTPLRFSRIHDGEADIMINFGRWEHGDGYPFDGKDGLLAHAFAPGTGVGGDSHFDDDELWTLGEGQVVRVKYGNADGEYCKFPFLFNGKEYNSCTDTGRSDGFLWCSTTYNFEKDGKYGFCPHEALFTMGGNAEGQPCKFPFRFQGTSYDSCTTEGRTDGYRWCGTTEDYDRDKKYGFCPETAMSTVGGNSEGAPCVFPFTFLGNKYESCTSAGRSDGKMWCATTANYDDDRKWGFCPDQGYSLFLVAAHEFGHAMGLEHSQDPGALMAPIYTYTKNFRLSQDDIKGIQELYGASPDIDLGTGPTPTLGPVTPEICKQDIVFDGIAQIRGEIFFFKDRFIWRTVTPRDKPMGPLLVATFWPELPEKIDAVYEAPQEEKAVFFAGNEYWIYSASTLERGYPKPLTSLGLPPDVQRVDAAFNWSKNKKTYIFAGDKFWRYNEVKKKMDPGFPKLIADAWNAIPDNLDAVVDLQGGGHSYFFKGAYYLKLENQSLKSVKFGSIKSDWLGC", "conditions": "read-out: IC50 MMP-2; average of three determinations, SD <10%"}, "MMP-9": {"molecular_target": "MMP-9 (Homo sapiens, UniProt P14780)", "sequence (P14780 107-707 limits assumed)": "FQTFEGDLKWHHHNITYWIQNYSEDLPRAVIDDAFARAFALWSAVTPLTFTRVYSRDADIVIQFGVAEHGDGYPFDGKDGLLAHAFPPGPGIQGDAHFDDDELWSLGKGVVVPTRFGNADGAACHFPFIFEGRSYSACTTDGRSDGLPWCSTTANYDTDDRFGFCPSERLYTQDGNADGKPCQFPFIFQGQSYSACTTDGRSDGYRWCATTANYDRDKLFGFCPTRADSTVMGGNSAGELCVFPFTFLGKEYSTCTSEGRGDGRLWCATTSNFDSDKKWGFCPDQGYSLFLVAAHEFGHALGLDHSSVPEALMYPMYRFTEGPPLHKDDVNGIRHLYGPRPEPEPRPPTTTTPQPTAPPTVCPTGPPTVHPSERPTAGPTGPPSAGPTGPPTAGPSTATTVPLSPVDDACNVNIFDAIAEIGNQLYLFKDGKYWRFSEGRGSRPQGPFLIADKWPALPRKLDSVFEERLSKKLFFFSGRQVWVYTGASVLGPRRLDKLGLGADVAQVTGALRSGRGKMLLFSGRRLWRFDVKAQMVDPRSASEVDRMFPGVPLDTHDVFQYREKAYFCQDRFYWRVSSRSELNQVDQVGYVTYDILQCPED", "conditions": "read-out: IC50 MMP-9; average of three determinations, SD <10%"}, "MMP-14 cd": {"molecular_target": "MMP-14 cd (Homo sapiens, UniProt P50281)", "conditions": "read-out: IC50 MMP-14; average of three determinations, SD <10%"}}, "note": "Like-named read-outs stand apart in the source and are kept apart here."}
{"compound": "C[C@@H]1C[C@H]2[C@@H]3CCC4=CC(=O)C=C[C@]4(C)[C@@]3(F)[C@@H](O)C[C@]2(C)[C@@]1(O)C(=O)CO", "note": "[Dex, Dexamethasone]", "values": [{"measurement": "corneal opacity score, Dex-treated MMP-8KO versus Dex treated WT", "setting": "corneal opacity [1]; 5 days post injury", "result": "significantly higher corneal opacity scores"}, {"measurement": "corneal opacity, topical Dex + vehicle IP versus topical BSS + vehicle IP", "setting": "corneal opacity [1]; WT mice", "result": "significantly lower corneal opacity"}, {"measurement": "wound healing", "setting": "[2]; Dex treated MMP-8KO mice", "result": 40, "unit": "%"}, {"measurement": "wound healing", "setting": "[2]; Dex treated WT mice", "result": 75, "unit": "%"}, {"measurement": "corneal opacity score, Dex versus BSS", "setting": "corneal opacity [3]", "result": "significantly lower opacity scores"}, {"measurement": "cytokine and MMP transcripts, Dex versus BSS", "setting": "[4]; MMP-8KO mice, CM 2D post injury", "result": "decreased IL-6, MMP-3, and MMP-9"}, {"measurement": "cytokine and MMP transcripts, Dex versus BSS", "setting": "[4]; MMP-8KO mice, CM 5D post injury", "result": "decreased MMP-9 and MMP-13"}, {"measurement": "IL-1β and CXCL1 expression", "setting": "[4]; MMP-8KO mice, CM, topical Dex, in contrast to WT", "result": "lost its ability to decrease IL-1β and CXCL1 expression"}, {"measurement": "cytokine and MMP transcripts, Dex versus BSS", "setting": "[4]; WT mice, CM 2D post injury", "result": "significantly decreased IL-6, MMPs -3, -9, -13 transcripts"}, {"measurement": "cytokine and MMP transcripts, Dex versus BSS", "setting": "[4]; WT mice, CM 5D", "result": "significantly decreased IL-6 and MMP-3"}, {"measurement": "influx of Gr-1+ cells into the wound site", "setting": "[5]", "result": "inhibited the influx"}]}
{"compound": "O=C(NO)c1ccccc1S(=O)(=O)c1ccc(-c2ccc(N3CCOCC3)cc2)cc1", "note": "[CAM12, N-Hydroxy-2-((4′-morpholino-[1,1′-biphenyl]-4-yl)sulfonyl) benzamide]", "values": [{"measurement": "IC50", "setting": "MMP-8", "result": 0.057, "unit": "µM"}, {"measurement": "corneal opacity score, topical Dex + CAM12 IP versus Dex + vehicle IP", "setting": "corneal opacity [1]; WT mice, 100 nM CAM12 IP QD", "result": "higher corneal opacity score"}, {"measurement": "expression of inflammatory cytokines and MMPs in the cornea", "setting": "[6]", "result": "no change in expression of inflammatory cytokines and MMPs"}, {"measurement": "re-epithelialization, topical Dex + CAM12 IP versus Dex + vehicle IP", "setting": "[2]; WT mice, 100 nM CAM12 IP QD", "result": "delayed re epithelialization"}, {"measurement": "IC50", "setting": "MMP-3", "result": 12, "unit": "µM"}, {"measurement": "IC50", "setting": "MMP-1", "result": 16.7, "unit": "µM"}, {"measurement": "MMP-13 mRNA, CAM12 IP versus controls", "setting": "[4]; WT mice, CM 2D and 5D, Dex topical treatment", "result": "higher MMP-13 mRNA transcripts"}, {"measurement": "IL-1β, IL-6, MMP-9 mRNA, CAM12 IP versus controls", "setting": "[4]; WT mice, CM 2D and 5D, both Dex and BSS topical treatment", "result": "higher expression of IL-1β, IL-6, MMP-9"}, {"measurement": "MMP-1, -3 mRNA, CAM12 IP versus controls", "setting": "[4]; WT mice, CM 5D, Dex topical treatment", "result": "higher levels of MMP-1, -3"}, {"measurement": "IC50", "setting": "MMP-2", "result": 0.024, "unit": "µM"}, {"measurement": "IC50", "setting": "MMP-9", "result": 2.3, "unit": "µM"}, {"measurement": "IC50", "setting": "MMP-14 cd", "result": 1.14, "unit": "µM"}]}
